Our source for the CC50 and IC50 values is US20030207812A1, “Cd45 inhibitors” (priority 2002, published 2003).

The nature of series [1]: Cytotoxicity assay (Calcein-AM uptake). To be noted: human, PHA-expanded T-cell lymphoblasts from PBMC.
Procedure: Calcein-AM (Molecular Probes. Eugene, Oreg.) uptake, as a quantitative measure of cell viability, was used to evaluate the toxic effect of compounds on T cells.
The T-cell lymphoblasts were purified by separation over Lymphoprep, plated at 2×10^5/well in a round bottom 96-well plate containing RPMI with compound and incubated overnight at 37° C. in an incubator containing 5% CO2. The dilution scheme and culture media were the same as those used in the T-cell proliferation assay. After the incubation period, cells were washed with Dulbecco's phosphate-buffered saline (D-PBS) and incubated with 1 μM Calcein-AM for 30-45 mim in D-PBS as described in the technical sheet provided with The LIVE/DEAD Viability/Cytotoxicity Kit from Molecular Probes.
Series [2] has as its target T1, CD45 (Homo sapiens, UniProt P08575).
T1 construct: incubating the cytosolic portion of CD45 with the compounds and p-nitrophenyl phosphate (pNPP); purchased BIOMOL (Plymouth Meeting, Pa.)
T1 sequence (P08575 599-1306 limits assumed): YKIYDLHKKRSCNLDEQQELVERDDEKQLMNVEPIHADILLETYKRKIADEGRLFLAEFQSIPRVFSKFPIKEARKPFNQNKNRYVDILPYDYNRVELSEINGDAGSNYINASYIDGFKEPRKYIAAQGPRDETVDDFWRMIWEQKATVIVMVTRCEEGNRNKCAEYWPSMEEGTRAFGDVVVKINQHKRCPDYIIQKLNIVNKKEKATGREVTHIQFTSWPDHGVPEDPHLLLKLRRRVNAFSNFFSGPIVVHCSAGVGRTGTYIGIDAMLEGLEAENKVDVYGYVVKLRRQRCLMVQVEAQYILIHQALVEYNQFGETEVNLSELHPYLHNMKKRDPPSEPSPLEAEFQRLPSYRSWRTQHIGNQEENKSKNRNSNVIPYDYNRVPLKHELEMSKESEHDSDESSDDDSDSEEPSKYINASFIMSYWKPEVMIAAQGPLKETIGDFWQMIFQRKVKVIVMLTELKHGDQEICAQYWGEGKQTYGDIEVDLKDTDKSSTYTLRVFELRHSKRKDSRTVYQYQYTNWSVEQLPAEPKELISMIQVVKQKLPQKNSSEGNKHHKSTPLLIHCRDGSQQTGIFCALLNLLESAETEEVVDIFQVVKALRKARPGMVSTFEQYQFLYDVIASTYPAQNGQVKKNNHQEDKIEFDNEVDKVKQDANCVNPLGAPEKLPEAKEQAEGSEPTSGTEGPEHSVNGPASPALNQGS
Kind of series: Phosphatase assay using lck 10-mer as substrate. Type of series: biochemical. To be noted: CD45 phosphatase, lck carboxy-terminal peptide TEGQpYQPQP substrate, pH 7.2; read-out: Ick IC50. The protocol:
Phosphatase assay using lck 10-mer as substrate:
Phosphatase activity was assayed in 96 well plates in a buffer containing final concentrations of 25 mM HEPES at pH 7.2, 5 mM DTT and 10 μg/mL BSA using the lck carboxy-terminal peptide TEGQpYQPQP as the substrate (Cho, H., Krishnaraj, R., Itoh, M., Kitas, E., Bannwarth, W., Saito, H., Walsh, C. T. 1993. Substrate specificities of catalytic fragments of protein tyrosine phosphatases (HPTPb, LAR, and CD45) toward the phosphotyrosylpeptide substrates and thiophosphotyrosylated peptides as inhibitors. Protein Science 2:977-984). Compounds were tested in a range from 30 to 0.01 μM in a final concentration of 5% DMSO. Enzyme was incubated with substrate with or without compound, at room temperature for 1.5 h. At the end of the incubation period, BIOMOL “Green Reagent” (BIOMOL, Plymouth Meeting, Pa.) was added to each well, the plates incubated at room temperature for 30 min and absorbance read at 620 nm.

Another series deals with T cells (PBMC). Kind of series: cells. Type of series: cell-based, human. To be noted: human PBMC, OKT3 30 ng/mL, [3H]thymidine; read-out: T cell prolif. IC50. How it is done:
Cell isolation and T cell proliferation assay:
Whole blood was obtained from healthy human blood donors. Peripheral blood mononuclear cells (“PBMC”) were isolated using Lymphoprep density-gradient centrifugation (Nycomed Amersham, Oslo, Norway), washed, counted and resuspended at 2×10^6 cells/mL in RPMI 1640 medium containing glutamine, 0.1 mg/mL gentamycin and 10% heat inactivated human serum. PBMC were transferred to 96-well plates (2×10^5 cells/well) containing compound or vehicle control, with the final concentration of DMSO not to exceed 0.3%, and incubated for 1 hour before addition of the activating anti-CD3 antibody, OKT3 (30ng/mL). After 24 hours in culture, the cells were pulsed with [^3H]thymidine (1 μCi/well) overnight and harvested the next day onto 96-well Packard GF/C filter plates using a Packard Cell Harvester (Packard Instruments, Meriden, Conn.). The filter plate was dried, the bottom of the plate sealed, 25 μL of Microscint 20 scintillation fluid added to each well, the top of the plate sealed with TopSeal-A, and the plate counted on a Packard TopCount. The data from the TopCount is transferred into Excel 5 (Microsoft, Redmond, Wash.) and formatted for EC50 determination using Prism software (GraphPad Software, San Diego, Calif.).

Series [3] concerns the target T1, CD45. The experiment in a line: Phosphatase assay using pNPP as substrate. The series is classed as biochemical. To be noted: CD45 phosphatase, pNPP substrate, pH 7.0; read-out: pNPP IC50. The protocol:
Phosphatase assay using pNPP as substrate:
CD45 enzyme was obtained from BIOMOL (Plymouth Meeting, Pa.). Phosphatase activity was assayed in a buffer containing final concentrations of 25 mM imidazole at pH 7.0, 50 mM NaCl, 2.5 mM ethylenediaminetetraacetic acid (“EDTA”), 5 mM dithiothreitol (“DTT”) and 10 μg/mL bovine serum albumin (“BSA”) using pNPP as a substrate.

For the compound `O=C(COCc1ccccc1)Nc1ccc2c(c1)C(=O)C(=O)c1ccccc1-2` [Example 2, 2-Benzyloxy-N-(9,10-dioxo-9,10-dihydro-phenanthren-2-yl)-acetamide], the 50% cytotoxic concentration (CC50) in series [1] was 14 µM. For the same compound, the IC50 is 11 µM at CD45 [2], 1 µM with T cells (PBMC) and 0.5 µM at CD45 [3].

Consider `CCCC(=O)Nc1ccc2c(c1)C(=O)C(=O)c1ccccc1-2` [Example 3, N-(9,10-Dioxo-9,10-dihydro-phenanthren-2-yl)-butyramide], for which, in series [1], the CC50 was 8.2 µM. The results for the IC50 at CD45 [2], with T cells (PBMC) and on CD45 [3] were 17 µM, 1.1 µM and 0.7 µM, respectively.

For `O=C1C(=O)c2cc(NC(=O)c3ccccc3[N+](=O)[O-])ccc2-c2ccccc21` [Example 5, N-(9,10-Dioxo-9,10-dihydro-phenanthren-2-yl)-2-nitro-benzamide], the CC50 in series [1] is 8.2 µM. The figures for the IC50 on CD45 [2], with T cells (PBMC) and on CD45 [3] were 12 µM, 1 µM and 0.3 µM, respectively.

On to `O=C1C(=O)c2cc(NC(=O)c3c(Cl)cc(Cl)cc3Cl)ccc2-c2ccccc21` [Example 6, 2,4,6-Trichloro-N-(9,10-dioxo-9,10-dihydro-phenanthren-2-yl)-benzamide], for which the half-maximal cytotoxic concentration (CC50) in series [1] is 12 µM. Besides, the IC50 at CD45 [2] was 16 µM; with T cells (PBMC), 1.5 µM; on CD45 [3] it was 0.5 µM.

As for `O=C1C(=O)c2cc(NC(=O)C(Cl)(Cl)Cl)ccc2-c2ccccc21` [Example 7, 2,2,2-Trichloro-N-(9,10-dioxo-9,10-dihydro-phenanthren-2-yl)-acetamide], in series [1], the 50% cytotoxic concentration (CC50) was 9 µM. Further, the IC50 was 13 µM on CD45 [2], 0.5 µM in the series with T cells (PBMC) and 0.5 µM on CD45 [3].

Take `O=C1C(=O)c2cc(NC(=O)c3ccccc3C(F)(F)F)ccc2-c2ccccc21` [Example 8, N-(9,10-Dioxo-9,10-dihydro-phenanthren-2-yl)-2-trifluoromethyl-benzamide]: in series [1], the CC50 was 12 µM. The 50% inhibitory concentration (IC50) on CD45 [2] was determined as 15 µM; with T cells (PBMC), 1.4 µM; on CD45 [3] it was 0.4 µM.

For `CC(C)(C)C(=O)Nc1ccc2c(c1)-c1ccccc1C(=O)C2=O` [Example 10, N-(9,10-Dioxo-9,10-dihydro-phenenathren-3-yl)-2,2-dimethyl-propionamide], the CC50 in series [1] was 10 µM. Also, the IC50 on CD45 [2] worked out at 4.9 µM; in the series on T cells (PBMC), 0.7 µM; at CD45 [3] it was 1.2 µM.

Consider `O=C(Nc1ccc2c(c1)-c1ccccc1C(=O)C2=O)c1ccccc1F` [Example 12, N-(9,10-Dioxo-9,10-dihydro-phenanthren-3-yl)-2-fluoro-benzamide], for which the CC50 in series [1] is 15 µM. Also, the IC50 on CD45 [2] came out at 6 µM; with T cells (PBMC), 3 µM; at CD45 [3], 1.3 µM.

For the compound `Cc1ccc(S(=O)(=O)Nc2ccc3c(c2)C(=O)C(=O)c2ccccc2-3)cc1` [Example 15, N-(9,10-Dioxo-9,10-dihydro-phenanthren-2-yl)-4-methyl-benzenesulfonamide], the CC50 in series [1] is greater than 30 µM. Moreover, the IC50 on CD45 [2] turned out to be 15 µM; in the series on T cells (PBMC), 6.4 µM; at CD45 [3], 1 µM.

Turning to `O=C1C(=O)c2cc(-c3ccsc3)ccc2-c2ccccc21` [Example 17, 2-Thiophen-3-yl-phenanthrene-9,10-dione], in series [1], the 50% cytotoxic concentration (CC50) is 7.3 µM. Also, the IC50 at CD45 [2] was greater than 30 µM; with T cells (PBMC) it was 1.8 µM; on CD45 [3], 0.8 µM.

Turning to `O=C1C(=O)c2cc(-c3ccc4c(c3)OCO4)ccc2-c2ccccc21` [Example 21, 2-Benzo[1,3]dioxol-5-yl-phenanthrene-9,10-dione], the CC50 in series [1] was 4.9 µM. The IC50 is greater than 30 µM at CD45 [2], 1.8 µM in the series on T cells (PBMC) and 0.99 µM on CD45 [3].

In the case of `CCOc1ccccc1-c1ccc2c(c1)C(=O)C(=O)c1ccccc1-2` [Example 22, 2-(2-Ethoxy-phenyl)-phenanthrene-9,10-dione], in series [1], the CC50 was greater than 30 µM. In addition, the results for the IC50 on CD45 [2], in the series on T cells (PBMC) and at CD45 [3] were 9.7 µM, 0.7 µM and 3.6 µM, respectively.

One may read the CC50 as the concentration giving 50% cytotoxicity. The term IC50 denotes the concentration at which inhibition is half-maximal.
